Measurements taken from publication PMC6471225 (Molecules, 2019).

Assays:
TBEV Neudoerfl strain [1] = assay type: cell-based, tick-borne encephalitis virus
in vitro = details: human, cytotoxic concentration (CC50) required to reduce cell viability by 50%
TBEV Hypr strain [2] = assay type: cell-based, tick-borne encephalitis virus
TBEV Neudoerfl strain [3] = test: microbe, parasite or virus in culture; assay type: cell-based, tick-borne encephalitis virus; details: for IC50: Tick-borne encephalitis virus, A549, 72 h, read-out: half-maximum inhibitory concentration (IC50), reduction of viral titer by 50%
TBEV Hypr strain [4] = assay type: cell-based, tick-borne encephalitis virus; remark: listed apart in the source
TBEV E and prM proteins = assay type: cell-based, tick-borne encephalitis virus
A549 cells = details: human

## CC(=O)O[C@H]1[C@H](C)O[C@H](OC[C@H]2O[C@@H](n3ccc(=O)[nH]c3=O)[C@@H]3OC(C)(C)O[C@@H]32)C[C@@H]1O[Si](C)(C)C(C)(C)C [Compound 1]
TBEV Neudoerfl strain [1]
  inhibition of TBEV infection, size and number of plaques: minor or no antiviral effect
In vitro
  CC50: 74 µM
TBEV Hypr strain [2]
  effect on viral growth: did not affect viral growth
TBEV Neudoerfl strain [3]
  effect on viral growth: did not affect viral growth

## CC(=O)O[C@H]1[C@H](C)O[C@H](OC[C@H]2O[C@@H](n3ccc(=O)n(C(=O)c4ccccc4)c3=O)[C@@H]3OC(C)(C)O[C@@H]32)C[C@@H]1O[Si](C)(C)C(C)(C)C [Compound 2]
TBEV Hypr strain [4]
  cell viability after inhibitory treatment (protection from TBEV-induced CPE): ~99%
TBEV Neudoerfl strain [1]
  inhibition of TBEV infection, size and number of plaques: nearly a complete inhibition of TBEV infection
  plaque formation: no plaques were detected
  reduction of number of plaques vs DMSO-treated infected cells: 98%
In vitro
  CC50: 141 µM
TBEV Neudoerfl strain [3]
  TBEV titer: undetectable levels
  selectivity index (SI) CC50/IC50: 26.6
  IC50: 5.3 µM

## CC1(C)OC2C(COC3CC(OCc4ccccc4)C(OCc4ccccc4)C(COCc4ccccc4)O3)OC(n3ccc(=O)[nH]c3=O)C2O1 (stereo not shown) [Compound 3]
TBEV Neudoerfl strain [1]
  inhibition of TBEV infection, size and number of plaques: minor or no antiviral effect
In vitro
  CC50: 97 µM
TBEV Hypr strain [2]
  effect on viral growth: did not affect viral growth
TBEV Neudoerfl strain [3]
  effect on viral growth: did not affect viral growth

## CC1(C)OC2C(COC3CC(OCc4ccccc4)C(OCc4ccccc4)C(COCc4ccccc4)O3)OC(n3ccc(=O)n(C(=O)c4ccccc4)c3=O)C2O1 (stereo not shown) [Compound 4]
TBEV E and prM proteins
  synthesis of E and prM proteins: completely inhibited the synthesis of both proteins
TBEV Hypr strain [4]
  cell viability after inhibitory treatment (protection from TBEV-induced CPE): ~99%
TBEV Neudoerfl strain [1]
  inhibition of TBEV infection, size and number of plaques: nearly a complete inhibition of TBEV infection
  plaque formation: no plaques were detected
  reduction of number of plaques vs DMSO-treated infected cells: 90%
In vitro
  CC50: 119 µM
TBEV Neudoerfl strain [3]
  reduction of the viral titer vs infected mock-treated cells: 10^4 fold
  selectivity index (SI) CC50/IC50: 85
  virus detection in supernatant: no virus was detected
  IC50: 1.4 µM

## CC1(C)OC2C(COC3CC(OCc4ccccc4)C(OCc4ccccc4)C(CO[Si](C)(C)C(C)(C)C)O3)OC(n3ccc(=O)[nH]c3=O)C2O1 (stereo not shown) [Compound 5]
In vitro
  CC50: 79 µM

## CC(=O)OCC1OC(OCC2OC(n3ccc(=O)[nH]c3=O)C3OC(C)(C)OC23)CC(OC(C)=O)C1OC(C)=O (stereo not shown) [Compound 6]
In vitro
  CC50: 196 µM

## CC(=O)OCC1OC(OCC2OC(n3ccc(=O)[nH]c3=O)C3OC(C)(C)OC23)CC(OC(C)=O)C1OC(C)=O (stereo not shown) [Compound 7]
A549 cells
  CC50: 223 µM

## CC(=O)OCC1OC(OCC2OC(n3ccc(=O)n(Cc4ccccc4)c3=O)C3OC(C)(C)OC23)CC(OC(C)=O)C1OC(C)=O (stereo not shown) [Compound 8]
In vitro
  CC50: 225 µM

## O=c1ccn(C2OC(COC3CC(O)C(O)C(CO)O3)C(O)C2O)c(=O)[nH]1 (stereo not shown) [Compound 9]
In vitro
  CC50: 238 µM

## CC1(C)OC2C(COC3CC(OCc4ccccc4)C(OCc4ccccc4)C(CO[Si](C)(C)C(C)(C)C)O3)OC(n3ccc(=O)n(C(=O)c4ccccc4)c3=O)C2O1 (stereo not shown) [Compound 10]
TBEV Hypr strain [4]
  cell viability after inhibitory treatment (protection from TBEV-induced CPE): 90%
TBEV Neudoerfl strain [1]
  inhibition of TBEV infection, size and number of plaques: nearly a complete inhibition of TBEV infection
  reduction of number of plaques vs DMSO-treated infected cells: 82–96%
In vitro
  CC50: 121 µM
TBEV Neudoerfl strain [3]
  selectivity index (SI) CC50/IC50: 18.6
  IC50: 6.5 µM

## CC1(C)OC2C(COC3CC(OCc4ccccc4)C(OCc4ccccc4)C(CO)O3)OC(n3ccc(=O)n(C(=O)c4ccccc4)c3=O)C2O1 (stereo not shown) [Compound 11]
TBEV Hypr strain [4]
  cell viability after inhibitory treatment (protection from TBEV-induced CPE): 81%
TBEV Neudoerfl strain [1]
  inhibition of TBEV infection, size and number of plaques: nearly a complete inhibition of TBEV infection
  reduction of number of plaques vs DMSO-treated infected cells: 82–96%
In vitro
  CC50: 141 µM
TBEV Neudoerfl strain [3]
  selectivity index (SI) CC50/IC50: 13.8
  IC50: 10.2 µM
